Laboratory results taken from US20240180158A1, “COMPOUNDS HAVING SELECTIVE INACTIVATION ACTIVITY” (University of North Carolina at Wilmington, priority 2021, published 2024).

Key:
[1] = biological target: T1, ASADH from Candida albicans (CalASADH) (Candida albicans, UniProt Q5ALM0); experiment: Time-dependent inactivation of CalASADH (pre-incubation, residual activity); type: biochemical
T1 construct: His tag; made in house
T1 sequence (Q5ALM0 1-365): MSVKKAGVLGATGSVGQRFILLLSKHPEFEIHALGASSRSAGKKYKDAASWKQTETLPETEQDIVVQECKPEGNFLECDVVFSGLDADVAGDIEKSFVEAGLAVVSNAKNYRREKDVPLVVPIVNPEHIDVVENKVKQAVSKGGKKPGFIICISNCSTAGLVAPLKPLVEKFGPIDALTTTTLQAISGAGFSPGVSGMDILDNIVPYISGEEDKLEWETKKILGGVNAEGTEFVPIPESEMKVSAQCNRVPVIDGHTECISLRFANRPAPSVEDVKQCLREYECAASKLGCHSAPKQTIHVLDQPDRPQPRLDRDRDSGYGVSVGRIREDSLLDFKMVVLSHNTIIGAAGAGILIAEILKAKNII
Description: Aryl vinyl sulfones can be reasonably potent inhibitors of CalASADH, each inhibitor was then tested to determine if it would function as an enzyme inactivator. […] In most cases the residual enzyme activity, measured following a subsequent 20-fold dilution into an assay mixture, decreased to less than 5% of the control rate after incubation with low micromolar levels of these inactivators for 10 min or less. To determine the rate of inactivation the concentration of each vinyl sulfone in this pre-incubation mixture was then varied, centered around their initial measured Ki values. The rate of activity loss observed in each incubation reaction (kobs) was plotted against the inhibitor concentration to determine the inactivation rate (kinact) for that compound and the concentration that produces half-maximal inactivation (Ki). […] The proposed product of the reaction of the active site nucleophile (Cys-156) with this inactivator predicts key interactions of the p-nitro group with Arg-18 and Ser-187, and the protonation of the covalent intermediate by His-256. […] Reaction of this inactivator with the active site nucleophile (Cys-156) predicts keys interactions between its carboxyl group and several backbone amide nitrogens that would shift this adduct further from the active site base (His-256). […]

[2] = tested on: C. albicans cells; experiment: C. albicans cell survival after exposure to inactivator; type: cell-based, Candida albicans; conditions: 1 h exposure; for cell survival rate, in words: several concentrations, survival after 48 h
Description: According to some embodiments, vinyl sulfone compounds contain both polar and, in some cases, charged functional groups that would make cellular uptake more challenging. However, to test the possibility that these compounds could inhibit the growth of C. albicans, two inactivators were selected for examination. […] The cells were plated and their survival rates were measured after 48 h relative to a control growth in the absence of inactivator.

[3] = tested on: S. aureus; experiment: Disk diffusion assay, S. aureus; type: cell-based; conditions: aromatic compounds
Description: (§1) The following disk diffusion assays were performed with example compounds described above to assess the ability of compounds to inhibit growth of microorganism. A compound that inhibits its target enzyme may perform poorly for a number of reasons, including low solubility in water or slow rate of transport across a microbial membrane.

[4] = tested on: C. albicans; experiment: Disk diffusion assay, C. albicans; type: cell-based; conditions: aromatic compounds
Description: as §1

[5] = tested on: K pneumoniae; experiment: Disk diffusion assay, K pneumoniae; type: cell-based; conditions: aromatic compounds
Description: as §1

Structure (SMILES)	ASADH inactivation, in words [1]	cell survival rate, in words [2]	disk diffusion, S. aureus [3]	disk diffusion, C. albicans [4]	disk diffusion, K pneumoniae [5]	cell survival ([2]; 25 μM, survival after 48 h relative to control)
O=S(=O)(/C=C/c1ccncc1)c1ccccc1 [4-(phenylsulfonylvinyl)pyridine]	moderate inactivator	some decrease in cell survival rate				
CS(=O)(=O)/C=C/c1ccncc1 [4-MSV-pyridine, 4-(methylsulfonylvinyl)pyridine]			medium	medium	medium	
CS(=O)(=O)/C=C/c1ccc2ccccc2n1 [2-MSV-quinoline, 2-(S-methylsulfonylvinyl)quinoline]				weak		
CS(=O)(=O)/C=C/c1ccc(C(=O)O)cc1 [4-(methylsulfonylvinyl)benzoic acid]	very good ASADH inactivator	some decrease in cell survival rate				less than 75%
